Experimental data taken from US20070203225A1, “METHOD OF INCREASING ENDOGENOUS ADIPONECTIN PRODUCTION AND LEPTIN PRODUCTION” (priority 2001, published 2007).
Entries after “also recorded” stand apart in the source; their conditions may differ. Where two headings read alike, the source gives them in different places.

What was measured:
isolated rat adipocytes [1] = details: cited from earlier work; for effect on leptin secretion (in words): citrate
isolated rat adipocytes [2] = assay: Leptin secretion/production by isolated cultured rat adipocytes (RIA); format: cell-based; details: for Leptin (ng) Produced over 96 h / [Leptin] (ng/ml) at 96 h: isolated rat adipocytes, 96 h culture; for increase of leptin production/secretion: PDH kinase inhibitors vs control: DTNB 100 μM, NEM 0.1 μM, DCA 2 mM; for increase of leptin secretion/production: Malate 2-5 mM, fumarate 5 mM, alone or in combination, low insulin and glucose, over control
Method: (§1) Cell isolation/preparation: Adipocytes are prepared from epididymal fat pads from male Sprague-Dawley rats weighing 300-600 g. Epididymal fat depots are resected from halothane anesthetized rats under aseptic conditions and adipocytes are isolated by collagenase digestion by the Rodbell method (Rodbell M. Metabolism of isolated fat cells. I. Effects of hormones on glucose metabolism and lipolysis. J Biol Chem. 1964; 239: 375-380), with minor modifications as previously described (Mueller W M, Gregoire F M, Stanhope K L, Mobbs C V, Mizuno T M, Warden C H, Stem J S, Havel P J. Evidence that glucose metabolism regulates leptin secretion from isolated adipocytes. Endocrinology 139: 551-558, 1998; Mueller W M, Stanhope K L, Gregoire F, Evans J L, Havel P J. Effects of metformin and vanadium on leptin secretion from cultured rat adipocytes. Obesity Res. 8: 530-539, 2000; Medina E A, Stanhope K L, Mizuno T M, Mobbs C V, Gregoire F, Hubbard N E, Erickson K L, Havel P J. Effects of tumor necrosis factor alpha on leptin secretion and gene expression: relationship to changes of glucose metabolism in isolated rat adipocytes. Int J Obes Relat Metab Disord. 23: 896-903, 1999.). The isolated adipocytes are then incubated for 30 minutes at 37 C before being plated and cultured on Matrigel-coated plates.
(§2) Adipocyte Culture: Adipocytes are maintained in culture anchored to a basement membrane matrix (Matrigel, Becton Dickinson, Franklin Lakes, N.J.) or collagen from Cohesion Technologies, (Palo Alto, Calif.). Although all in vitro systems have inherent advantages and disadvantages, advantages of this system compared with cultures containing free-floating adipocytes are that the matrix simulates their normal basement membrane attachment and that the cells are maintained in close proximity to each other, allowing direct cell to cell contact. Together the cell contact and basement membrane attachment help to maintain differentiation, since adipocytes have a strong tendency to dedifferentiate in long-term (>24 h) culture. In addition, the matrix and the small amount of serum in the media both contain growth factors, which are also likely to help in maintaining cell differentiation. Furthermore, the adipocytes in this system are not exposed to toxic levels of oxygen at the interface of the media and the incubator atmosphere, as opposed to free-floating adipocytes which aggregate at the surface of the media. An advantage of the system over those containing minced adipose tissue is that all of the cells in the culture are equally exposed to the nutrients and the oxygen dissolved in the media. Thus, although clearly different from the in vivo situation, this system provides a more physiological environment than most systems for maintaining adipocytes in long-term culture.
(§3) In culturing each suspension, Matrigel is first thawed on ice to a liquid and uniformly applied to the surface of culture dishes (300 μl Matrigel/35 mm well). After the incubation period, 150 μl of the adipocyte suspension (2:1 ratio of packed cells to media) are plated on the Matrigel or collagen matrix. Adipocytes from each suspension are thoroughly mixed with a transfer pipette before plating to insure that a similar number adipocytes with a similar size distribution are added to the control and experimental wells for each suspension. The warmth of the added cells and buffer causes the Matrigel to gel around the adipocytes, or the neutralization of the acidic pH of the collagen solution to 7.0 solidifies the collagen, and both of these techniques effectively anchor the adipocytes to the culture dish. After a 30 minute incubation at 37° C., 2 ml of warm culture medium is added. The cells are maintained in an incubator at 37° C. for 96 hours with 6% CO2. Aliquots of adipocytes from each animal are divided into wells, with the different concentrations of insulin or other agents to be tested. In each plate an appropriate control well contains adipocytes from the same animal. […]

cultured rat adipocytes = assay: Adiponectin secretion by isolated cultured rat adipocytes over 96 h; format: cell-based; details: DTNB 100 μM, DCA 2 mM; 96 h culture, n=6
Method: Several studies have reported that thiazolidenediones (TZDs), agonists of PPARγ, increase adiponectin expression and circulating levels in animals (Maeda, 2001; Yamauchi, 2001a; Ye, 2003). TZD (10 μM Troglitazone) stimulated of adiponectin secretion from cultured rat adipocytes from 3 different depots (n=6). Mesenteric fat produced the largest amount of adiponectin over 96 hours in culture. (FIG. 5A). Adiponectin secretion from both the control- and TZD-treated adipocytes was well correlated with the glucose utilization (control, r=0.79; p<0.001); (TZD-treated, r=0.84, p=<0.0001, FIG. 5B) showing that, similar to leptin production, glucose metabolism also is involved in the regulation of adiponectin production by adipocytes.
Insulin increased adiponectin production from 3 different fat depots, however as in the experiments with troglitazone, the mesenteric depot produced the most adiponectin (FIG. 6B). Like leptin, both basal and insulin-stimulated adiponectin secretion was highly correlated to glucose utilization (r=0.91, p<0.0001) (FIG. 6C), and inversely related to the proportion of glucose metabolized to lactate (r=−0.81, p<0.0001) (FIG. 6D).
Also paralleling the regulation of leptin, adiponectin secretion by isolated cultured adipocytes was increased during 96 h culture by inhibitors of PDH-K. DTNB (100 μM) increased adiponectin secretion by 40% (p<0.03, n=6, FIG. 7A). DCA (2 mM) increased adiponectin secretion by 23% (p<0.025, n=6, FIG. 7B). The increase in adiponectin induced by DTNB was highly correlated with glucose utilization (r=0.95, p<0.004). Furthermore in adipocytes transfected with antisense directed at PDH-K, adiponectin secretion was stimulated by 24.3±8.4%, p<0.05, n=7, FIG. 7C).
as §1
Adipocyte Culture: Adipocytes are maintained in culture anchored to a basement membrane matrix (Matrigel, Becton Dickinson, Franklin Lakes, N.J.) or collagen from Cohesion Technologies, (Palo Alto, Calif.). […]

isolated rat adipocytes [3] = assay: Glucose utilization (uptake) by isolated cultured rat adipocytes; format: cell-based; details: for Glucose Uptake (μg) over 96 h: isolated rat adipocytes, 96 h culture
Method: as §1, §2, §3

isolated rat adipocytes [4] = assay: Lactate production and proportion of glucose anaerobically metabolized to lactate in isolated cultured rat adipocytes; format: cell-based; details: for Glucose to Lactate (%) / Lactate Produced (μg) over 96 h: isolated rat adipocytes, 96 h culture
Method: as §1, §2, §3

isolated rat adipocytes [5] = assay: Incorporation of glucose carbon into triglyceride in cultured adipocytes; format: cell-based
Method: Incorporation of Glucose Carbon into Triglyceride: To measure glucose incorporation into triglyceride, cultures are exposed to media containing 0.01 uCi/ml of ^14C-glucose. After 96 hr, media and extracellular lipid is removed from the well and methanol added. Then scrape the collagen-cell matrix from the well and transfer into a 50 ml glass tube. Rinse the well and scrape again in methanol to assure complete transfer of cells. Total triglycerides will be extracted using the Folch method (Folch, 1957). An aliquot of the lipid extract will be placed into vials containing scintillation fluid then radioactivity will be measured.
The first measurement is used to calculate the amount of glucose incorporated into triglycerides. Another aliquot of the lipid extract is placed into pre-weighed aluminum pans to determine the total amount of triglyceride per well. The remaining lipid is saponified and acidified to separate the glycerol and fatty acids. An aliquot of the lipid extract is placed into vials containing scintillation fluid and counted. This second count represents the ^14C-glucose incorporation into fatty acids. By subtraction, the amount that was incorporated into triglyceride though glycerol is also determined. Glucose incorporation into triglyceride and into the fatty acid portion of the triglyceride are calculated by multiplying disintegration per min by total ug of glucose/well over the total DPM/well.

isolated rat adipocytes [6] = assay: Glucose oxidation: incorporation of 14C-glucose into CO2 by isolated rat adipocytes; format: cell-based
Method: Substrate Oxidation: Oxidation is measured using a modification of the method of Rodbell (Rodbell, 1964) and a modification of the cell culture system described by Bottcher and Furst (Bottcher, 1996). Briefly, adipocytes are isolated, counted and sized as previously described. Adipocytes are plated as described except they are placed in a sterile 20 ml scintillation vial instead of a well. Two ml of treatment media containing [U-^14C]-substrate (0.3 uCi/ml; glucose, fatty acids, malate, fumarate, pyruvate) is added to the vials. The vials are filled with 95% O2-5% CO2 gas and capped with rubber stoppers fitted with a hanging center well. Each well contains a 2×8 cm strip of Whatman No. 1 paper. Vials are maintained at 37° C. for 48 hr. After 48 hr, a sample of media is removed from each vial using a 4 inch, 23 gauge needle. Using another syringe and 23 gauge needle, 200 ul of sodium benzethonium is placed onto the paper strip and hanging well to capture CO2. Concentrated sulfuric acid is added to the vial in order to lyse cells and liberate all CO2 from the collagen matrix. After 24 hours, the hanging well and paper are transferred to another vial containing scintillation fluid and counted. The data are expressed as % DPM recovered as CO2 of the total DPM remaining in the media at 48 hours and as micromoles of substrate oxidized over time.

[7] = system: isolated, cultured adipocytes; assay: Fatty acid oxidation: incorporation of 14C-labeled oleate into CO2 by cultured adipocytes; format: cell-based, rat
Method: Experiments were also carried out to examine fatty acid oxidation by measuring the incorporation of ^14C-labeled oleate into CO2. […] Therefore, to further examine the potential role of fatty acid oxidation adipocytes were incubated with L-carnitine, a cofactor of the rate-limiting step for fatty acid transport into the mitochondria via carnitine-palmitoyl-tranferase (CPT).
Substrate Oxidation: Oxidation is measured using a modification of the method of Rodbell (Rodbell, 1964) and a modification of the cell culture system described by Bottcher and Furst (Bottcher, 1996). Briefly, adipocytes are isolated, counted and sized as previously described. Adipocytes are plated as described except they are placed in a sterile 20 ml scintillation vial instead of a well. Two ml of treatment media containing [U-^14C]-substrate (0.3 uCi/ml; glucose, fatty acids, malate, fumarate, pyruvate) is added to the vials. The vials are filled with 95% O2-5% CO2 gas and capped with rubber stoppers fitted with a hanging center well. Each well contains a 2×8 cm strip of Whatman No. 1 paper. Vials are maintained at 37° C. for 48 hr. […] After 24 hours, the hanging well and paper are transferred to another vial containing scintillation fluid and counted. The data are expressed as % DPM recovered as CO2 of the total DPM remaining in the media at 48 hours and as micromoles of substrate oxidized over time.

leptin promoter = assay: Leptin promoter luciferase construct transfected into 3T3-L1 cells; format: cell-based
[8] = DCA 2.0 mM + insulin 0.48 nM vs control (insulin only)
[9] = NEM 0.1 μM + insulin 0.48 nM vs control (insulin only)
[10] = DTNB 100 μM, NEM 0.1 μM, DCA 2 mM

## [F-].[Na+] [sodium fluoride]
Isolated rat adipocytes [1]; glycolysis suppressed with sodium fluoride
  effect on leptin expression and secretion (in words): reduced

## O=C(O)CC(O)(CC(=O)O)C(=O)O [Citrate]
Isolated rat adipocytes [1]; low glucose and insulin concentration
  effect on leptin secretion (in words): stimulates
Isolated rat adipocytes [1]; presence of high insulin and glucose
  effect on leptin secretion (in words): does not affect

## O=C(O)C(Cl)Cl [DCA, Dichloroacetate]
Isolated rat adipocytes [2]; [8]
  % ΔLeptin Produced over 96 h: +17.6 ± 4.7%
  % Δ[Leptin] (ng/ml) at 96 h: +17.9 ± 7.9%
  Change in Parameter: Leptin (ng) Produced over 96 h: +12.9 ± 3.6 ng
  Change in Parameter: [Leptin] (ng/ml) at 96 h: +3.6 ± 1.0 ng/ml
Isolated rat adipocytes [2]; DCA 2.0 mM + insulin 0.48 nM
  Leptin (ng) Produced over 96 h: 88.3 ± 7.5 ng
  [Leptin] (ng/ml) at 96 h: 27.0 ± 2.6 ng/mL
Isolated rat adipocytes [2]; cultured adipocytes
  increase of leptin production/secretion: 20-25%
Cultured rat adipocytes
  increase of adiponectin secretion: 23%
Isolated rat adipocytes [3]; [8]
  Change in Parameter: Glucose Uptake (μg) over 96 h: -46 ± 57 µg
Isolated rat adipocytes [3]; DCA 2.0 mM + insulin 0.48 nM
  Glucose Uptake (μg) over 96 h: 1082 ± 117 µg
Isolated rat adipocytes [4]; [8]
  Change in Parameter: Glucose to Lactate (%): −16.1 ± 1.3%
  Change in Parameter: Lactate Produced (μg) over 96 h: -181 ± 10 µg
Isolated rat adipocytes [4]; DCA 2.0 mM + insulin 0.48 nM
  Glucose to Lactate (%): 7.9 ± 0.9%
  Lactate Produced (μg) over 96 h: 81 ± 4 µg

## CCN1C(=O)C=CC1=O [NEM, N-ethylmaleimide]
Isolated rat adipocytes [2]; [9]
  % ΔLeptin Produced over 96 h: +26.6 ± 6.2%
  % Δ[Leptin] (ng/ml) at 96 h: +25.3 ± 6.3%
  Change in Parameter: Leptin (ng) Produced over 96 h: +14.2 ± 4.2 ng
  Change in Parameter: [Leptin] (ng/ml) at 96 h: +4.0 ± 1.0 ng/ml
Isolated rat adipocytes [2]; NEM 0.1 μM + insulin 0.48 nM
  Leptin (ng) Produced over 96 h: 63.4 ± 8.2 ng
  [Leptin] (ng/ml) at 96 h: 18.4 ± 2.4 ng/mL
Isolated rat adipocytes [2]; PDH kinase inhibitors DTNB, NEM, DCA, cultured adipocytes
  effect on leptin production/secretion (in words): increase
Isolated rat adipocytes [2]; cultured adipocytes
  increase of leptin production/secretion: 25%
Isolated rat adipocytes [3]; [10]
  effect on total / insulin-mediated glucose utilization (in words): increased
Isolated rat adipocytes [3]; [9]
  Change in Parameter: Glucose Uptake (μg) over 96 h: +348 ± 114 μg
Isolated rat adipocytes [3]; NEM 0.1 μM + insulin 0.48 nM
  Glucose Uptake (μg) over 96 h: 1399 ± 132 µg
Isolated rat adipocytes [4]; [10]
  effect on glucose not converted to lactate or incorporated into TG (OTHER; glucose flux into oxidation), by subtraction (in words): increased
  effect on proportion of glucose anaerobically metabolized to lactate (in words): decreased
Isolated rat adipocytes [4]; DTNB 100 μM, NEM 0.1 μM, DCA 0.1 to 5.0 mM
  effect on lactate production (in words): without any increase
Isolated rat adipocytes [4]; [9]
  Change in Parameter: Glucose to Lactate (%): −6.9 ± 2.3%
  Change in Parameter: Lactate Produced (μg) over 96 h: -10 ± 13 µg
Isolated rat adipocytes [4]; NEM 0.1 μM + insulin 0.48 nM
  Glucose to Lactate (%): 13.6 ± 1.5%
  Lactate Produced (μg) over 96 h: 178 ± 11 µg
Isolated rat adipocytes [5]; [10]
  effect on proportion of glucose incorporated into TG (in words): without affecting

## O=C(O)CC(O)C(=O)O (stereo not shown) [Malate]
Isolated rat adipocytes [2]
  increase of leptin secretion/production: 20%
Isolated rat adipocytes [2]; listed as malate
  increase of leptin secretion/production: +20%

## CCCCCCCC/C=C\CCCCCCCC(=O)O [oleate, oleic acid]
Isolated rat adipocytes [2]; oleate/oleic acid 2 mM, low glucose
  effect on leptin secretion (in words): increased
Isolated rat adipocytes [2]; oleate/oleic acid 2 mM, low glucose, listed as oleic acid
  effect on leptin secretion (in words): increases
Isolated rat adipocytes [6]; Rattus norvegicus, Adipocyte, oleate 2 mM, n=7
  inhibition at 2000 µM: 30%
Isolated rat adipocytes [6]; oleic acid 2 mM, low glucose
  effect on glucose oxidation (in words): inhibits

## C[N+](C)(C)C[C@H](O)CC(=O)[O-] [Carnitine, L-carnitine]
Isolated rat adipocytes [2]; Carnitine 20 mM, n=12
  effect on leptin secretion (in words): modestly increased
Isolated rat adipocytes [6]; L-carnitine
  effect on glucose oxidation (in words): inhibited
Isolated rat adipocytes [3]; Carnitine 20 mM
  effect on glucose utilization (in words): inhibited
Isolated rat adipocytes [4]; Carnitine 20 mM
  effect on proportion of glucose metabolized to lactate (in words): increased
Isolated rat adipocytes [5]; Carnitine 20 mM
  effect on incorporation of labeled glucose into TG/lipid (in words): inhibited
[7]; Carnitine 20 mM, n=7, percent of control
  increase of fatty acid oxidation: 50%
[7]; L-carnitine
  effect on fatty acid oxidation (in words): increased

## O=CC[C@@H](O)[C@H](O)[C@H](O)CO [2-DG, 2-deoxy-D-glucose]
Isolated rat adipocytes [2]; 2-DG treatment
  effect on leptin secretion and ob gene expression (in words): suppressed
Leptin promoter; insulin 10 nM, 2-DG 10 mg/dl
  effect on activity of control plasmid (in words): unaffected
Leptin promoter; insulin 0.1 to 10 nM, 2-DG 10 mg/dl on basal and insulin-stimulated (10 nM) activity
  effect on leptin promoter activity (in words): markedly inhibited; also recorded: completely blocked
